Measurements: patent US20200060276A1, “THIAZOLE COMPOUND AND HERBICIDE” (OAT Agrio Co., Ltd., priority 2017, published 2020)

Legend:
Type in all cases: in vivo
[1] = test system: Echinochloa crus-galli (L.) P. Beauv. var. formosensis Ohwi; assay: Test for Herbicidal Effect in Flooding Treatment (#1), ECHDG; conditions: flooding treatment at seeding, dose 2 kg/ha, visual observation on day 21
Summary of the method: (§1)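 Sieved soil in cups was flooded and left 24 h before weed seeds were sown. Compounds in acetone, diluted with Tween 80-containing water, were dropped over the whole surface at 2 kg/ha. After 21 days in a glasshouse, growth inhibition was scored visually from 0 (<10%) to 5 (≥90% or complete withering).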

Monochoria vaginalis = assay: Test for Herbicidal Effect in Flooding Treatment (#1), MONVA; conditions: flooding treatment at seeding, dose 2 kg/ha, visual observation on day 21
Summary of the method: as §1

Scirpus juncoides = assay: Test for Herbicidal Effect in Flooding Treatment (#1), SCIJU; conditions: flooding treatment at seeding, dose 2 kg/ha, visual observation on day 21
Summary of the method: as §1

[2] = test system: Echinochloa crus-galli (L.) P. Beauv. var. formosensis Ohwi; assay: Test for Herbicidal Effect in Flooding Treatment (#2), ECHDG at 2-2.5 leaf stage; conditions: flooding treatment at 2-2.5 leaf stage, dose 0.2 kg/ha, visual observation on day 21
Summary of the method: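 Scoring is a visual 0–5 scale of growth inhibition (0 below 10%, 5 at 90% or more or full withering), taken 21 days after treatment in a glasshouse. Dose was 0.2 kg/ha, applied as acetone/Tween 80 aqueous solution onto flooded soil once seedlings reached the 2–2.5 leaf stage.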

Row | Compound | ECHDG #1 herbicidal effect (growth inhibition grade) [1] | MONVA #1 herbicidal effect (growth inhibition grade) (Monochoria vaginalis) | SCIJU #1 herbicidal effect (growth inhibition grade) (Scirpus juncoides) | ECHDG (2-2.5L) #2 herbicidal effect (growth inhibition grade) [2]
1 | [2H]C([2H])(c1c(OCC)ccc(Cl)c1Cl)S(=O)(=O)c1ncc(Cl)s1 [Compound 1C-130, 5-chloro-2-{[2-ethoxy-5,6-dichlorophenyl][dideuterium(methanesulfonyl)]}-1,3-thiazole] | 5 (Growth inhibition effect is equal to or greater than 90%, or complete withering is achieved) | 5 (Growth inhibition effect is equal to or greater than 90%, or complete withering is achieved) | 5 (Growth inhibition effect is equal to or greater than 90%, or complete withering is achieved) | 5 (Growth inhibition effect is equal to or greater than 90%, or complete withering is achieved)
2 | [2H]C([2H])(c1c(F)cccc1OC(F)F)S(=O)(=O)c1ncc(Cl)s1 [Compound 1C-131] | 5 (Growth inhibition effect is equal to or greater than 90%, or complete withering is achieved) | 5 (Growth inhibition effect is equal to or greater than 90%, or complete withering is achieved) | 5 (Growth inhibition effect is equal to or greater than 90%, or complete withering is achieved) | 5 (Growth inhibition effect is equal to or greater than 90%, or complete withering is achieved)
3 | [2H]C([2H])(c1c(Cl)cccc1OC(F)F)S(=O)(=O)c1ncc(Cl)s1 [Compound 1C-132] | 5 (Growth inhibition effect is equal to or greater than 90%, or complete withering is achieved) | 5 (Growth inhibition effect is equal to or greater than 90%, or complete withering is achieved) | 5 (Growth inhibition effect is equal to or greater than 90%, or complete withering is achieved) | 5 (Growth inhibition effect is equal to or greater than 90%, or complete withering is achieved)
4 | [2H]C([2H])(c1c(Cl)cccc1OC(F)(F)F)S(=O)(=O)c1ncc(Cl)s1 [Compound 1C-133] | 5 (Growth inhibition effect is equal to or greater than 90%, or complete withering is achieved) | 5 (Growth inhibition effect is equal to or greater than 90%, or complete withering is achieved) | 5 (Growth inhibition effect is equal to or greater than 90%, or complete withering is achieved) | 5 (Growth inhibition effect is equal to or greater than 90%, or complete withering is achieved)
5 | [2H]C([2H])(c1ccccc1OCC(F)(F)F)S(=O)(=O)c1ncc(Cl)s1 [Compound 1C-134] | 5 (Growth inhibition effect is equal to or greater than 90%, or complete withering is achieved) | 5 (Growth inhibition effect is equal to or greater than 90%, or complete withering is achieved) | 5 (Growth inhibition effect is equal to or greater than 90%, or complete withering is achieved) | 5 (Growth inhibition effect is equal to or greater than 90%, or complete withering is achieved)
6 | [2H]C([2H])(c1c(Cl)cccc1OCC(F)(F)F)S(=O)(=O)c1ncc(Cl)s1 [Compound 1C-135] | 5 (Growth inhibition effect is equal to or greater than 90%, or complete withering is achieved) | 5 (Growth inhibition effect is equal to or greater than 90%, or complete withering is achieved) | 5 (Growth inhibition effect is equal to or greater than 90%, or complete withering is achieved) | 5 (Growth inhibition effect is equal to or greater than 90%, or complete withering is achieved)
7 | [2H]C([2H])(c1c(Cl)ccc(OC)c1F)S(=O)(=O)c1ncc(Cl)s1 [Compound 1C-136] | 5 (Growth inhibition effect is equal to or greater than 90%, or complete withering is achieved) | 5 (Growth inhibition effect is equal to or greater than 90%, or complete withering is achieved) | 5 (Growth inhibition effect is equal to or greater than 90%, or complete withering is achieved) | 5 (Growth inhibition effect is equal to or greater than 90%, or complete withering is achieved)
8 | [2H]C([2H])(c1c(Cl)ccc(OC)c1Cl)S(=O)(=O)c1ncc(Cl)s1 [Compound 1C-137] | 5 (Growth inhibition effect is equal to or greater than 90%, or complete withering is achieved) | 5 (Growth inhibition effect is equal to or greater than 90%, or complete withering is achieved) | 5 (Growth inhibition effect is equal to or greater than 90%, or complete withering is achieved) | 5 (Growth inhibition effect is equal to or greater than 90%, or complete withering is achieved)
9 | CCOc1ccc(Cl)cc1C(F)(F)S(=O)(=O)c1ncc(Cl)s1 [Compound 1C-138] | 5 (Growth inhibition effect is equal to or greater than 90%, or complete withering is achieved) | 5 (Growth inhibition effect is equal to or greater than 90%, or complete withering is achieved) | 5 (Growth inhibition effect is equal to or greater than 90%, or complete withering is achieved) | 3 (Growth inhibition effect equal to or greater than 50%, and less than 70%)
10 | CC(C)(c1c(F)cccc1OCC(F)F)S(=O)(=O)c1ncc(Cl)s1 [Compound 1C-143] | 5 (Growth inhibition effect is equal to or greater than 90%, or complete withering is achieved) | 5 (Growth inhibition effect is equal to or greater than 90%, or complete withering is achieved) | 5 (Growth inhibition effect is equal to or greater than 90%, or complete withering is achieved) | 4 (Growth inhibition effect is equal to or greater than 70%, and less than 90%)
11 | CC(=O)C(C(C)=O)(c1c(F)cccc1OC(F)F)S(=O)(=O)c1ncc(Cl)s1 [Compound 1C-147] | 5 (Growth inhibition effect is equal to or greater than 90%, or complete withering is achieved) | 5 (Growth inhibition effect is equal to or greater than 90%, or complete withering is achieved) | 5 (Growth inhibition effect is equal to or greater than 90%, or complete withering is achieved) | 5 (Growth inhibition effect is equal to or greater than 90%, or complete withering is achieved)
12 | CC(c1c(F)cccc1OCC(F)(F)C(F)F)S(=O)(=O)c1ncc(Cl)s1 (stereo not drawn) [Compound 1C-148] | 5 (Growth inhibition effect is equal to or greater than 90%, or complete withering is achieved) | 5 (Growth inhibition effect is equal to or greater than 90%, or complete withering is achieved) | 5 (Growth inhibition effect is equal to or greater than 90%, or complete withering is achieved) | 5 (Growth inhibition effect is equal to or greater than 90%, or complete withering is achieved)
13 | O=S(=O)(Cc1c(F)cccc1OC(F)F)c1ncc(Br)s1 [Compound 1C-153] | 5 (Growth inhibition effect is equal to or greater than 90%, or complete withering is achieved) | 5 (Growth inhibition effect is equal to or greater than 90%, or complete withering is achieved) | 5 (Growth inhibition effect is equal to or greater than 90%, or complete withering is achieved) | 5 (Growth inhibition effect is equal to or greater than 90%, or complete withering is achieved)
14 | O=S(=O)(Cc1c(Cl)cccc1OC(F)F)c1ncc(Br)s1 [Compound 1C-154] | 5 (Growth inhibition effect is equal to or greater than 90%, or complete withering is achieved) | 5 (Growth inhibition effect is equal to or greater than 90%, or complete withering is achieved) | 5 (Growth inhibition effect is equal to or greater than 90%, or complete withering is achieved) | 5 (Growth inhibition effect is equal to or greater than 90%, or complete withering is achieved)
15 | O=S(=O)(Cc1c(F)ccc(F)c1OC(F)F)c1ncc(Br)s1 [Compound 1C-155] | 5 (Growth inhibition effect is equal to or greater than 90%, or complete withering is achieved) | 5 (Growth inhibition effect is equal to or greater than 90%, or complete withering is achieved) | 5 (Growth inhibition effect is equal to or greater than 90%, or complete withering is achieved) | 5 (Growth inhibition effect is equal to or greater than 90%, or complete withering is achieved)
